The values that follow come from patent US20260226049A1, “NITROGEN-CONTAINING HETEROCYCLIC COMPOUND, PREPARATION METHOD THEREFOR, AND USE THEREOF” (BIVISION PHARMACEUTICALS, INC, priority 2023, published 2026).

The Kd is the equilibrium constant for the complex coming apart. Higher therefore signals a looser complex.

The target of one experiment is T1, FAP protein (Homo sapiens, UniProt Q12884).
T1 construct: purchased Sinobiological
T1 sequence (Q12884 1-760): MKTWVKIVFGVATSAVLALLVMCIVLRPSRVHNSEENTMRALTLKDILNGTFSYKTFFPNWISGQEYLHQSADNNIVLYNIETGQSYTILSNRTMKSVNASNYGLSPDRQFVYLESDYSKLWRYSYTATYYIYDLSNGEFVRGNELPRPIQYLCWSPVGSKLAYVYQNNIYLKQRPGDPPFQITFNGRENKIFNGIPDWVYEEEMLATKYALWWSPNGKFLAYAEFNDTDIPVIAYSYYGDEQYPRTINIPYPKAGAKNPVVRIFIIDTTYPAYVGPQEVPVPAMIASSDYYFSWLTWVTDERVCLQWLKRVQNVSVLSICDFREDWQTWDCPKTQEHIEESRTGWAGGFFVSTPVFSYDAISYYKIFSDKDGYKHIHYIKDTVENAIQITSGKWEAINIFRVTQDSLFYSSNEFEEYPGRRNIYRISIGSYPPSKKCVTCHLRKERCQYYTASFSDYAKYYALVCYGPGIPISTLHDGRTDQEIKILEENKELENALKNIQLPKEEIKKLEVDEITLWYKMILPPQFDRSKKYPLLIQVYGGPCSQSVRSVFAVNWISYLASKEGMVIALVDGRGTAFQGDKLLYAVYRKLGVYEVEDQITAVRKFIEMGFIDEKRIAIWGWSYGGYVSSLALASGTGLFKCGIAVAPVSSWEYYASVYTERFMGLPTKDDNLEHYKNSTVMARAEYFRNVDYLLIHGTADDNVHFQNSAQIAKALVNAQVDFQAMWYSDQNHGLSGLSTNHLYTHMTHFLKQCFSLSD
Briefly: Biacore test of ligand binding to FAP protein. The settings on record: FAP protein on SA chip, 15° C., 1:1 binding model. As to the method: The Biacore 8K (Cytiva) instrument was used to detect ligand binding of the FAP protein (Sinobiological). The FAP protein was captured on the SA chip. Before ligand immobilization (flow paths 1 and 2, flow rate of 10 μL/min), the FAP protein (10 μg/mL, flow rate of 5 μL/min, injection time of 600 s) was immobilized on flow path 2 using running buffer, and the sensor surface was conditioned with three consecutive injections of 1 M NaCl in 50 mM NaOH. After each ligand injection, additional washing was carried out with isopropanol in 1 M NaCl and 50 mM NaOH (flow paths 1 and 2, flow rate of 10 μL/min, injection time of 60 s).
The test compounds were dissolved in 100% dimethyl sulfoxide and diluted to 10 mM, then further diluted in the assay buffer (PBS, pH 7.4, 1 mM TCEP ([…]), 0.05% P20, 2% dimethyl sulfoxide) to appropriate maximum concentrations. The analyte was run under the following conditions: analysis temperature=15° C., analysis step=all set to LMW kinetics; cycle type=single cycle (90 s contact time, 1800 s dissociation time, 30 μL/min flow rate, flow channels 1, 2); flow channel detection=2-1). Data evaluation was performed using Biacore Insight Evaluation Software, and the data were fitted to a 1:1 binding model.
The Biacore results are shown in Table 1: pKD=−Log KD, where KD is the binding affinity of the compound to the FAP protein as measured by Biacore. The binding affinity is expressed by KD (M)=Kd(1/s)/Ka(1/Ms). Where A: pKD>8, B: 7<pKD<8, C: 6<pKD<7, D: pKD<6.
(In SPR one partner is held on a chip, and binding of the other changes the refractive index at the surface.)

Experiment [1] has as its system HT1080 cell line with high FAP expression. The experiment can be described thus: Therapeutic experiment of ^177Lu-labeled compounds in tumor-bearing mice. The class given is in vivo, Balb/c Nude mice. The settings on record: ^177Lu-labeled compound. On the procedure:
Balb/c Nude tumor-bearing mice (supplier: Shanghai Alamo Pharmaceutical Technology Co., Ltd., HT1080 cell line with high FAP expression) aged approximately 6-8 weeks were randomly assigned to 13 experimental groups based on tumor volume, with 5 mice per group. Animal body weight and tumor size were measured, and administration was initiated on the grouping day starting with Group 1 (control group: normal saline). General health and appearance were observed daily after the start of the experiment. Animal body weight and tumor size were measured before each sample collection time point. Any abnormal observations detected during the entire study period were required to be recorded in the raw data.
The synthesized compounds were labeled with ^177Lu and subsequently utilized in the therapeutic assay on mouse tumor models. […] Furthermore, no significant changes in mouse body weight (FIG. 8) were observed throughout the experimental period.
• TGI^TV: Relative tumor inhibition rate (TGI^TV): TGI^TV (%)=[1−(Ti−T0)/(Vi−V0)]×100%; • (Ti: average tumor volume of the treatment group on day i of administration, TO: average tumor volume of the treatment group on day 0 of administration; Vi: average tumor volume of the solvent control group on day i of administration, V0: average tumor volume of the solvent control group on day 0 of administration) • T/C: T/C % is one of the most commonly used indicators for tumor response to treatment: T/C %=T/C*100%; • (T represents the average tumor volume of the treatment group at a specific time point; C represents the average tumor volume of the control group at a specific time point.)
The differences between the treatment groups (tumor volumes of the second, third, fourth, and fifth groups) and the control group (tumor volume of the first group) and between the tumor volumes of the first, third, fourth, and fifth groups and the tumor volume of the second group were analyzed using the two-way ANOVA Fisher's LSD test method. P-values less than 0.05 were considered statistically significant. Both statistical significance and biological significance were taken into account during the result analysis.

As for `N#C[C@@H]1CC(F)(F)CN1C(=O)CNC(=O)c1cccc2c1CCN(C(=O)CCC(=O)NCCNC(=O)CCC(C(=O)O)N1CCN(CC(=O)O)CCN(CC(=O)O)CCN(CC(=O)O)CC1)C2` (some centres unmarked) [JHH5], the Kd on FAP protein is below 10 nM. In experiment [1], the “therapeutic effects in mouse tumor model” value is listed as “dose-dependent therapeutic effects”.
